“Also recorded” adds a separate entry of the source. *1 amine or outer side, *2 acyl side, *3 side chain or, on linkers, in order; H or OH if unused. Where a SMILES comes first, the peptide text is derived from it. Where no end group is shown, it is not given here. [ ]: non-standard residue; d: D form. X1 = C=CC(C)(C)n1cc(C[C@@H](N[*:1])C(=O)[*:2])c2ccccc21; NMeF = CN[C@@H](Cc1ccccc1)C(=O)O; dNMeF = CN[C@H](Cc1ccccc1)C(=O)O
How the values were obtained:
[1] = test system: 3T3 Swiss Albino fibroblasts; assay type: cell-based, mouse; details: 48 h
Description: (§1) Swiss Albino cell line 3T3 and two SCLC cell lines, DMS79 and H69, were selected for screening. 3T3 cells are fibroblast non-cancerous cells and were used to show the selectivity of the peptides for cancer treatment. The DMS79 cell line is a variant cell line model which is more resistant to chemotherapy as it originates from a patient with SCLC who had undergone treatment with cytoxan, vincristine, methotrexate and radiation therapy. On the other hand, H69 represents a chemo-naive SCLC cell line model. Cell viability was assessed by quantifying the reduction of resazurin dye to fluorescent resorufin.[28]–[31] H69 and DMS79 cells were seeded in 96-well plates at a density of 10 000 cells per well and maintained in 10% FBS/RPMI-1640 for 48 hours at 37 °C in a humidified air atmosphere of 5% CO2 in the presence of various peptide concentrations. […] The dye was then applied for 5 hours before measuring fluorescence. […]
(§2) Complete medium containing resazurin was used as background. […] Then resazurin (20 µl) was added to each well and kept at 37 °C in a humidified air atmosphere of 5% CO2 for 5 hours before fluorescence readings were recorded. […]
(§3) Assessment of apoptosis was carried out through a fluorescent technique by using Acridine Orange (AO) and Ethidium Bromide (EB) double staining. […] AO emits green fluorescence while EB emits red/orange fluorescence when […]

[2] = test system: H69 small cell lung cancer cell line; assay: Cell viability assay (resazurin) on H69 cells; assay type: cell-based, human; details: 48 h
Description: Swiss Albino cell line 3T3 and two SCLC cell lines, DMS79 and H69, were selected for screening. 3T3 cells are fibroblast non-cancerous cells and were used to show the selectivity of the peptides for cancer treatment. The DMS79 cell line is a variant cell line model which is more resistant to chemotherapy as it originates from a patient with SCLC who had undergone treatment with cytoxan, vincristine, methotrexate and radiation therapy. On the other hand, H69 represents a chemo-naive SCLC cell line model. Cell viability was assessed by quantifying the reduction of resazurin dye to fluorescent resorufin.[28]–[31] H69 and DMS79 cells were seeded in 96-well plates at a density of 10 000 cells per well and maintained in 10% FBS/RPMI-1640 for 48 hours at 37 °C in a humidified air atmosphere of 5% CO2 in the presence of various peptide concentrations. 3T3 cells were maintained under the same conditions but using 10% FBS/DMEM and a seeding density of 2500 cells per well. The dye was then applied for 5 hours before measuring fluorescence. […] The peptide thus had the potential to be tested in vivo subject to its biocompatibility with plasma.
Growth media, RPMI-1640 (with L-glutamine and NaHCO3) and DMEM, Dulbecco’s PBS (without calcium chloride and magnesium chloride), and Resazurin sodium salt were obtained from Sigma-Aldrich®. Human lung small cell carcinoma (H69 (ECACC 91091802)) and Mouse Swiss Albino embryo fibroblast (3T3 Swiss Albino (ECACC 85022108)) were from European Collection of Authenticated Cell Cultures (ECACC, Public Health England). […]
as §2, §3

[3] = phase I clinical trial, cited from earlier work
Description: Recognising the anti-proliferative action together with other preclinical evidence supporting broad-spectrum neuropeptide antagonism prompted a phase I clinical trial with SPG,[11] the results of which were encouraging. […] This, combined with low potency of the peptide, necessitated prolonged dosing by infusion to maintain therapeutic concentrati ...

[4] = test system: DMS79 small cell lung cancer cell line; assay: Cell viability assay (resazurin) on DMS79 cells; assay type: cell-based, human; details: 48 h
Description: as §1, §2, §3

[5] = Peptide stability in mouse plasma (HPLC); assay type: in vitro ADME; details: neat mouse plasma, 37 °C; for stability in mouse plasma over 3 hour incubation: 400 µg/ml, 0 and 3 h, RP-HPLC C8, 220 nm, triplicate
Experimental: (§4) Plasma drug interaction affects the ability of the drug to distribute into tissues. To determine the extent of plasma binding to peptide 2, equilibrium dialysis (Cyprotex Ltd) was carried out. A 5 μM solution of peptide in PBS at pH 7.5 in 0.5% DMSO was mixed with neat human plasma in a total volume of 0.15 ml. After equilibrium at 37 °C, aliquots were taken from both sides of the membrane to determine the fraction of bound peptide. […] While in circulation, the peptide needs to be stable for a few hours to accumulate in tumours. It is commonly accepted that unmodified peptides are highly prone to protease digestion in plasma, leading to rapid degradation within a few minutes. Peptides 1 and 2 were subjected to stability testing in mouse plasma. The peptides dissolved in neat plasma (0.2 ml) were incubated at 37 °C. Aliquots (20 μl) were taken at 0 and 3 hour intervals in triplicate for analysis by HPLC. […] A plasma stability of 3 hours is considered as a sufficient time window to accumulate in tumour for efficacy studies.
4. Peptides stability in mouse plasma
Eppendorf® tubes were used for sample preparations. HPLC microvials were bought from Sigma-Aldrich®. HPLC analysis was performed using a C8 column (ACE 5 C8 – 250 X 4.6mm id) on a PerkinElmer Series 200 machine.
4.2. Peptides plasma stability
Peptides were added to neat mouse plasma at a concentration of 400 µg/ml and placed inside an incubator at 37 °C for 3 hours. Aliquots (20 µl) were taken at 0 and 3 hour periods. […] Then 80 µl of the supernatant was added to 0.1% TFA/H2O (120 µl) and transferred into a HPLC microvial to be analysed using the C8 column. […]
DMS79 cells were injected subcutaneously into ten CBA nude female mice (bred in house) at 5x10^6 cells/mouse in 0.1 ml of serum free RPMI-1640 medium containing 50% matrigel (Scientific Laboratory Supplies, Surrey, UK) as described in our recent publication (Reference 38). Tumours were measured and mice weighed 3 times a week throughout the study. Tumour volumes were calculated by multiplying the length, width and depth of tumors. […]

[6] = Plasma binding by equilibrium dialysis (Cyprotex Ltd); assay type: in vitro ADME; details: neat human plasma
Experimental: as §4

[7] = Aqueous solubility (observation on dosing solutions); assay type: physicochemical; details: observation while preparing dosing solutions; higher concentration gave significant precipitation
NCI-H69 cells = details: at 50 μM, serum-free media; cited from earlier work
Description: (§5) Several other related short chain SP antagonists have been investigated in the literature. […] Recently, Sarvi et al.[19] designed and synthesised a panel of eight substance P-peptide analogues ranging from a pentamer to 11-mer sequences. They compared their IC50 values, relative to SPG, using H345 and H69 cell lines. All an ...

H345 and H69 cell lines = details: cited from earlier work
Description: as §5

H345 xenografts = details: subcutaneous injections, 25 mg kg^–1; cited from earlier work
Experimental: The relative tumour volume (RTV) as a percentage was calculated by dividing the tumour volumes on measured days by the tumour volume on day 0, before treatment. […] Excluding this single animal from the treated group, the tumour growth inhibition (TGI, Fig. 5) was calculated at day 7 as TGI (%) = (1 – T/C) × 100, where T indicates the mean tumour volume (mm^3) of the test group and C indicates the mean tumour volume of the vehicle-treated group. At day 7, the tumour volumes of pre ...

H69 = details: treatment for 72 hours; cited from earlier work
Description: Swiss Albino cell line 3T3 and two SCLC cell lines, DMS79 and H69, were selected for screening. 3T3 cells are fibroblast non-cancerous cells and were used to show the selectivity of the peptides for cancer treatment. The DMS79 cell line is a variant cell line model which is more resistant to chemotherapy as it originates from a patient with SCLC who had undergone treatment with cytoxan, vincristine, methotrexate and radiation therapy. On the other hand, H69 represents a chemo-naive SCLC cell line model. Cell viability was assessed by quantifying the reduction of resazurin dye to fluorescent re ...

[8] = up to the concentration of 30 μM, resazurin

In the case of `CSCC[C@H](NC(=O)[C@H](CC(C)C)NC(=O)[C@@H](Cc1c[nH]c2ccccc12)NC(=O)[C@H](Cc1ccccc1)N(C)C(=O)[C@@H](Cc1c[nH]c2ccccc12)NC(=O)[C@@H](N)CCCNC(=N)N)C(N)=O` [SPG, Arg–D-Trp–NMePhe–D-Trp–Leu–Met-NH2] (H-R[dW][NMeF][dW]LM-NH2), the IC50 [1] is reported as greater than 30 µM, the IC50 [2] is reported as greater than 30 µM and the “inhibitory effect (cytotoxicity profile), H69” value [2, 8] is reported as “no inhibitory effect”. The elimination from plasma ([3]; resulting in poor systemic bioavailability) was “quickly eliminated from plasma”, the toxicity [3] was “minimal toxicity” and the IC50 [4] was greater than 30 µM. For the same compound, the “inhibitory effect (cytotoxicity profile), DMS79” value [4, 8] was “no inhibitory effect”.

In the case of `CN[C@H](Cc1ccccc1)C(=O)N[C@H](Cc1c[nH]c2ccccc12)C(=O)N[C@@H](Cc1ccccc1)C(=O)N[C@H](Cc1c[nH]c2ccccc12)C(=O)N[C@@H](CC(C)C)C(N)=O` [peptide 1] (H-[dNMeF][dW]F[dW]L-NH2), the “stability in mouse plasma over 3 hour incubation” value [5] is reported as “remained largely intact”.

With `C=CC(C)(C)n1cc(C[C@@H](NC(=O)[C@H](Cc2ccccc2)NC(=O)[C@@H](Cc2c[nH]c3ccccc23)NC(=O)[C@@H](Cc2ccccc2)NC)C(=O)N[C@@H](CC(C)C)C(N)=O)c2ccccc21` [peptide 2, NMeDPhe-DTrp-Phe-DTrp(N-tert-prenyl)-Leu-NH2] (H-[dNMeF][dW]F[X1]L-NH2) the “stability in mouse plasma over 3 hour incubation” value [5] was “remained largely intact; also recorded: a small percentage of degradation was noted”, the “time of resisting degradation by plasma” value ([5]; HPLC) was “at least 3 hours” and the fraction unbound at 5 µM ([6]; 5 μM peptide in PBS pH 7.5 with 0.5% DMSO, total volume 0.15 ml, 37 °C, mean) was 0.728 ± 0.124. For the same compound, the peptide unbound ([6]; 5 μM, PBS pH 7.5, 37 °C) was 73%, the “cytotoxicity enhancement of 2 over pentamer 1 (comparison of IC50 values)” value ([2]; depending on the cell line (DMS79 and H69)) was 5 to 10 fold and the aqueous solubility [7] was “limited aqueous solubility; also recorded: lower aqueous solubility than SPG”.

For “D-MePhe–D-Trp–Phe–D-Trp–Leu-MPA [NY3521]”, the “inhibition of growth of NCI-H69 cells” value (NCI-H69 cells) is listed as “completely inhibited”.

For “D-MePhe–D-Trp–Phe–D-Trp–LeuΨ(CH2NH)Leu-NH2 [NY3460]”, the “inhibition of growth of NCI-H69 cells” value (NCI-H69 cells) is listed as “completely inhibited”.

In the case of [dR]PKP[dW]Q[dW]F[dW][dL]L [11-mer], the “potency relative to SPG (IC50 values)” value (H345 and H69 cell lines) is given as 3 to 4 fold, the tumour growth (H345 xenografts) is given as “significant reduction in tumour growth” and the IC50 (H69) is given as 4.96 ± 0.64 µM.
